What all share (type): cell-based
For experiment [1], the target named is T1, Nav1.7 (Homo sapiens (Human), UniProt Q15858). Kind of experiment: Electrophysiology assay, whole cell patch clamp, affinity to inactivated state. The note with it: read-out: activities (Ki) against Nav1.7. Here is the method:
Whole cell patch clamp recording is used to assess the efficacy or selectivity of Na channel blocker on human voltage gated sodium channels. Na channel expressing cells are dissociated by 0.05% Trypsine-EDTA or Accutase, and then seeded on cover glass for 2-24 hrs.
Manual patch clamp recordings are conducted at rt using the voltage-clamp amplifier (Axon Instruments or HEKA electronik). Electrodes are pulled with P-97 electrode puller (Sutter Instrument). The electrode resistances are 1-3 MOhm when intracellular solution is filled. Currents are lowpass filtered between 2-5 kHz and digitally sampled at 10 kHz.
The extracellular and intercellular solutions for human Nav1.7 and Nav1.5 consist of the following composition: […]
The normalized steady-state inactivation curve is constructed using 2 sec (for vehicle) or 60 sec (for drugs) conditioning pulse to different potentials followed immediately by the test pulse to −10 mV. […] The affinity of test compound to resting state of Na channels (Kresting or Kr) is assessed by depolarizing test pulse from a negative holding potential of −130 mV, where virtually all channels are in the resting state. Kr value is calculated by a conventional 1:1 binding model: Kresting(Kr)={[drug]Imax,drug/(Imax, control−Imax, drug)} [Math.8] • where Kresting (=Kr) is a dissociation constant for the resting state and [drug] is compound concentration. […]

The target in experiment [2] is T1, Nav1.7. Kind of experiment: EFS-FRET assay. The note with it: EFS-FRET, CHO cells expressing human Nav1.7; read-out: IC50 against Nav1.7. Here is the method: This screen is used to determine the effects of compounds on human Nav1.7 channels, utilizing electrical field stimulation (EFS) system in 96-well plate format on FDSS (Hamamatsu Photonics) platform. The change of membrane potential is monitored with FRET dye pair, DiSBAC2(3) and PTS 18.
CHO (Chinese hamster ovary) cells expressing human Nav1.7 channels are grown in T225 flasks, in a 5% CO2 humidified incubator to about 80% confluence. Media composition consists of HAM/F^.12 with Glutamax I, 10% FCS, 100 units/mL penicillin and 100 microgram/mL hygromycin.
Seed each cell lines (1×10^5 cells/well) into 96-well plates prior to experimentation.
Incubate at 37° C. in 5% CO2, for 24 hours.
Wash each well with assay buffer (140 mM NaCl, […], 10 mM D-Glucose, 2 mM CaCl2, 1 mM MgCl2, 10 mM HEPES, pH 7.4 adjusted with NaOH) twice.
Add 1st loading solution containing 10 microM PTS18 and 0.06% Pluronic F-127 in assay buffer.
Incubate the plate at rt in dark for 1 hour. • Remove 1st loading solution and add 2nd loading solution containing 12.5 microM DiSBAC2(3), 1.25 mM Xylene Fast Yellow and 0.0075% Pluronic F-127 in assay buffer. • Place the plate under the dark at rt for 25 minutes. • Add compound solutions into the assay plate. • Set the assay plate in FDSS and place an EFS device on the plate. • Measure EFS-induced fluorescent response by FDSS.
The data are analyzed and reported as normalized ratios of intensities measured at […]. The process of calculating these ratios is performed as follows:
This analysis is performed using a computerized specific program designed for
FDSS generated data. Fluorescence ratio values are plotted using XLfit to determine an IC50 value for each, compound.

The target in another experiment is human Nav1.8 channels (Homo sapiens (Human), UniProt Q9Y5Y9). As to the kind of experiment: FRET assay (FDSS). The note with it: FRET, HEK293 cells expressing human Nav1.8; read-out: IC50 against Nav1.8. On the procedure:
(§1) This screen is used to determine the effects of compounds on human Nav1.8, and human Nav1.5 channels, utilizing the cell imaging technology by Hamamatsu Photonics's Functional Drug Screening System (FDSS). The changes of membrane potential are monitored with fluorescent membrane potential dye pair, DiSBAC2(3) and CC2-DMPE, using FRET technology.
(§2) HEK293 cells expressing human Nav1.8 channels or human Nav1.5 channels are grown in T225 flasks, in a 5% CO2 humidified incubator to about 80% confluence. Media composition of HEK293 cells expressing human Nav1.8 channels consists of Dulbecco's Modified Eagle Medium (high glucose), 10% fetal calf serum (FCS), 100 units/mL Penicillin, 100 microgram/mL Streptomycin, 200 microgram/mL Zeocin and 500 microgram/mL Geneticine. HEK293 cells expressing human Nav1.5 channels are maintained in Dulbecco's Modified Eagle Medium (high glucose) supplemented with 10% fetal calf serum (FCS), 100 units/mL Penicillin, 100 microgram/mL Streptomycin and 500 microgram/mL Geneticine.
(§3) Seed each cell lines (1.5×10^4 cells/well) into 384-well plates prior to experimentation.
(§4) Incubate at 37° C. in 5% CO2 for 24 hours.
(§5) Wash each well with buffer #1 (140 mM NaCl, 4.5 mM KCl, 10 mM D-Glucose, 2 mM CaCl2, 1 mM MgCl2, 10 mM HEPES, pH 7.4 adjusted with. NaOH) twice using plate washer.
(§6) Add 1st loading solution containing 7.5 microM CC2-DMPE and 0.06% Pluronic F-127 in buffer #1.
(§7) Incubate the plate at rt in dark for 0.5 hours.
(§8) Wash each well with buffer #2 (160 mM Choline, 10 mM D-Glucose, 0.1 mM CaCl2, 1 mM MgCl2, 1.0 mM HEPES, pH 7.4 adjusted with KOH) twice using plate washer.
(§9) Add 2nd loading solution containing 75 microM DiSBAC2(3), 2.5 mM Xylene Fast Yellow, 10 microM Deltamethrin or 100 microM veratridine and 0.02% Pluronic F-127 in buffer #2.
(§10) Add compound solutions into the assay plate and leave the plate for 30 minutes under the dark at rt.
(§11) Monitor the fluorescent membrane potentials before and after the addition of buffer #2 by FDSS.
(§12) The data is analyzed and reported as normalized ratios of intensities measured in the 465 nm and 575 nm channels. The process of calculating these ratios is performed as follows: FR=(FI465Max/FI575Min)−(FI465B/FI575B) [Math.2]
(§13) “FI465B”=the mean of fluorescence intensity as baseline (before Na^+ ligand addition) at 465 nm
(§14) “FI575B”=the mean of fluorescence intensity as baseline (before Na^+ ligand addition) at 575 nm
(§15) “FI465Max”=maximum fluorescence intensity at 465 nm after Na^+ stimulation
(§16) “FI575Min”=minimum fluorescence intensity at 575 nm after Na^+ stimulation
(§17) This analysis is performed using a computerized specific program designed for FDSS generated data. Fluorescence ratio values are plotted using XLfit to determine an IC50 value for each compound.

The target of a further experiment is human Nav1.5 channels (Homo sapiens (Human), UniProt Q14524). As to the kind of experiment: FRET assay (FDSS). The note with it: HEK293 cells expressing human Nav1.5, read-out: activity (IC50) against Nav1.5. Here is the method:
as §1, §2, §3, §4, §5, §6, §7, §8, §9, §10, §11, §12, §13, §14, §15, §16, §17

T1 sequence (Q15858 whole entry): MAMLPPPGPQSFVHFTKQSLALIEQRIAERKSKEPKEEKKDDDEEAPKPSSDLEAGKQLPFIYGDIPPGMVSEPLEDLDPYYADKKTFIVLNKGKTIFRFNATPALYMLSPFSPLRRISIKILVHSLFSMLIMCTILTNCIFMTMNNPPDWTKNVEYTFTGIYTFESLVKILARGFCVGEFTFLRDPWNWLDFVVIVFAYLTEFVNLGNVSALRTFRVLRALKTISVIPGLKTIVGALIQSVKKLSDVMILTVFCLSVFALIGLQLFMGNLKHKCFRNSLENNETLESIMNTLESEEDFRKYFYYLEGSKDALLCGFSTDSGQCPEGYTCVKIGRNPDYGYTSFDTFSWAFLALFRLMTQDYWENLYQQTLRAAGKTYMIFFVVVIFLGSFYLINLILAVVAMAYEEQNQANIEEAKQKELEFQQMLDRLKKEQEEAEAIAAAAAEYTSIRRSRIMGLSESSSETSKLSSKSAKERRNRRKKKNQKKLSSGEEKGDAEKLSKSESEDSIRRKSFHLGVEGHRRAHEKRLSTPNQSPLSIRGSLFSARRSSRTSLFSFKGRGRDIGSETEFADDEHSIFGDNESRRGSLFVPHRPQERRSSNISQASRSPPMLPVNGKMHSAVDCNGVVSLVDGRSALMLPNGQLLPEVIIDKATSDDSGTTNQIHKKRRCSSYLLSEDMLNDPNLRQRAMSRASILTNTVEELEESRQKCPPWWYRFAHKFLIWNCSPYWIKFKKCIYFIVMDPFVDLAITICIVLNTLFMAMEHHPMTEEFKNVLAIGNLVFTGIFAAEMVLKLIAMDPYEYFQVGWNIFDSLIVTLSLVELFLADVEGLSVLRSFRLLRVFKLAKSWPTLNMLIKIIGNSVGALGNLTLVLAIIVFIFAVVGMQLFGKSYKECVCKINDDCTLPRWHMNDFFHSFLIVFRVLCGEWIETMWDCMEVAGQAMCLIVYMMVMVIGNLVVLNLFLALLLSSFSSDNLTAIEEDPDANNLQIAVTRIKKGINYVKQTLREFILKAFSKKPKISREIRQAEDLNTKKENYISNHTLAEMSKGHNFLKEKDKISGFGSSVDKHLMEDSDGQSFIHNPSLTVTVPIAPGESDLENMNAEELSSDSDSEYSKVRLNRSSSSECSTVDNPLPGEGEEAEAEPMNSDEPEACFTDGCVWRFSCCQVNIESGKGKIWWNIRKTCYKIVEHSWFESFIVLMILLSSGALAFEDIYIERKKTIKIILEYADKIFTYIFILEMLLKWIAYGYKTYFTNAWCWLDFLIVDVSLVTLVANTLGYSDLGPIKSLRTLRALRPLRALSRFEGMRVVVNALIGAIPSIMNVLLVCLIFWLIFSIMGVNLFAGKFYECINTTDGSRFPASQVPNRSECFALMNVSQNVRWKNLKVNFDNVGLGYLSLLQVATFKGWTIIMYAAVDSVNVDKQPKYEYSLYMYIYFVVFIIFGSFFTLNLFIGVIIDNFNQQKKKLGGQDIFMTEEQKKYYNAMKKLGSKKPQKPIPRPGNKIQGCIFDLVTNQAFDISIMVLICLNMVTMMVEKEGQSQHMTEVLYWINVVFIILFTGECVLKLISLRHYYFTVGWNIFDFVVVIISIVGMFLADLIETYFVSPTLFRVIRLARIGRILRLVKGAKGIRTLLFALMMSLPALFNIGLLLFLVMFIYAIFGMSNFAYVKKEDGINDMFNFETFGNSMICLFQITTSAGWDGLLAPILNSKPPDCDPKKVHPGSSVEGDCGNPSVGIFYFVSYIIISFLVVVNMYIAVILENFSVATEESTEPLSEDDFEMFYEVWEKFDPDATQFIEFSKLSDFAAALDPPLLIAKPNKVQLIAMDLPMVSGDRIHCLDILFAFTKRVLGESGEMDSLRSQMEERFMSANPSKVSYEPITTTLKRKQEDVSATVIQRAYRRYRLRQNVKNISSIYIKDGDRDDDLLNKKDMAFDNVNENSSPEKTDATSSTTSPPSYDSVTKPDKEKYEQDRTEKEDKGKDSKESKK
Sequence of human Nav1.8 channels (Q9Y5Y9 whole entry): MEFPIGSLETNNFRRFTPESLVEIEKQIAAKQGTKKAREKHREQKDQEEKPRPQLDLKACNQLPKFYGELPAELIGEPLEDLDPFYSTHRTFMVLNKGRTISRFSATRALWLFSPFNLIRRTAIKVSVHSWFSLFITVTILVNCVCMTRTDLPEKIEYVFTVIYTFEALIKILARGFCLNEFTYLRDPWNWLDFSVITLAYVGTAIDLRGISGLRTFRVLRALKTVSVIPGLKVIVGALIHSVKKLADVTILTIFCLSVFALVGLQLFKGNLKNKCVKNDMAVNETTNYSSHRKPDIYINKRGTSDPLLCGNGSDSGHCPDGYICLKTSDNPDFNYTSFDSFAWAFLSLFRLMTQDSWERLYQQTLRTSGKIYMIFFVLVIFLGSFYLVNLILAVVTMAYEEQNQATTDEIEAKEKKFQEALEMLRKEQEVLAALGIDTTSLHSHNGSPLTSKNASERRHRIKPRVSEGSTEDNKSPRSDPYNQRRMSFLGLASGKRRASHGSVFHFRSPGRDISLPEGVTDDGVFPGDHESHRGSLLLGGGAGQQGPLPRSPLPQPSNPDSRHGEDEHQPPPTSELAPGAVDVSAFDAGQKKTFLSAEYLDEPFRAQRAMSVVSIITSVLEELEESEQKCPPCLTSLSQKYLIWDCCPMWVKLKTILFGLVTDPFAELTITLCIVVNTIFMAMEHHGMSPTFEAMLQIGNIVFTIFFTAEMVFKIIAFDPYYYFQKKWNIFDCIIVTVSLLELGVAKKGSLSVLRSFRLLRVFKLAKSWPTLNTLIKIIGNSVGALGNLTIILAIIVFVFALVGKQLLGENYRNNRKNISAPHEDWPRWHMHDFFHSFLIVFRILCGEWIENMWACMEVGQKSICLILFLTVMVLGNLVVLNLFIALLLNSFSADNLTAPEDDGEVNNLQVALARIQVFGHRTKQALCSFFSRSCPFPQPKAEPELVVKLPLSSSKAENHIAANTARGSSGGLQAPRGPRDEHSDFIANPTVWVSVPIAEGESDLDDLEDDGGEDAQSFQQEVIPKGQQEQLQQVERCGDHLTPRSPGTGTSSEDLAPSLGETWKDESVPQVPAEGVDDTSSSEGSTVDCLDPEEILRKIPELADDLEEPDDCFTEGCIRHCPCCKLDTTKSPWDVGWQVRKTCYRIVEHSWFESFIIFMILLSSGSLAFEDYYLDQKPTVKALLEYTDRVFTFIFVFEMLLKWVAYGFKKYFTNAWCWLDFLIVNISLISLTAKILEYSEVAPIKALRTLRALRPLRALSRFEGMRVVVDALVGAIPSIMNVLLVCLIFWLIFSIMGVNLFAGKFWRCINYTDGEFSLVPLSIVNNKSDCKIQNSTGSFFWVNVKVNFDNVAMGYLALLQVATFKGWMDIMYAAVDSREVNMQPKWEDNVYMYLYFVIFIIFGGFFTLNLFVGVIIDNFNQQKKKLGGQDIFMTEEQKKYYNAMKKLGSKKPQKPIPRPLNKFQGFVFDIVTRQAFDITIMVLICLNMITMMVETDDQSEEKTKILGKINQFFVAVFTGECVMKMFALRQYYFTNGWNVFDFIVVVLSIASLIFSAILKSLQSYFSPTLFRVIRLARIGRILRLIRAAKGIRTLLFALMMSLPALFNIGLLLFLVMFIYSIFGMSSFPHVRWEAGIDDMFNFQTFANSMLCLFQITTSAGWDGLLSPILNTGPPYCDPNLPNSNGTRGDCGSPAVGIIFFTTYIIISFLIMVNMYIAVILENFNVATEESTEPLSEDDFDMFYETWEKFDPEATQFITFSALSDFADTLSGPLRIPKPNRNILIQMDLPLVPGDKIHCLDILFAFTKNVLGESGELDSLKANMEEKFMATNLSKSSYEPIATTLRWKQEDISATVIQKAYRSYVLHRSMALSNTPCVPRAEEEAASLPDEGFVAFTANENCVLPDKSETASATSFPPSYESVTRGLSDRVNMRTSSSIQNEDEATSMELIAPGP

The term IC50 denotes the point on the concentration scale where inhibition reaches its midpoint. Regarding `CCC(=O)Nc1cc(C(=O)NCCNc2ncc(C(F)(F)F)cc2Cl)ccn1` [Example 3], the Ki at Nav1.7 [1] turned out to be 960 nM. The IC50 on Nav1.7 [2] is below 500 nM.
Regarding `CC(CNC(=O)c1ccnc(NC(=O)C2CC2)c1)Oc1ccc(C(F)(F)F)cc1` (stereo not drawn) [Example 1, 2-(cyclopropanecarboxamido)-N-(2-(4-(trifluoromethyl)phenoxy)propyl)isonicotinamide], the IC50 at human Nav1.8 channels was 650 nM; on human Nav1.5 channels, above 30000 nM.
Consider `CC(=O)Nc1cc(C(=O)NCCNc2ncc(C(F)(F)F)cc2Cl)cc(C)n1` [Example 4], for which, on Nav1.7 [1], the Ki is 520 nM. Besides, the IC50 on Nav1.7 [2] was below 500 nM.

(Values after patent US11154544B2, “Amide derivatives as Nav1.7 and Nav1.8 blockers” (RaQualia Pharma Inc., priority 2017, dated 2021).)
